Here are results for three compounds from BindingDB's records for doi:10.1124/mol.63.5.1082 (Johnson and Johnson Pharmaceutical Research and …, 2003).

“And” between values parts separate entries of the source, which are not always exact repeats. Equal values may be shown once.

The target of the assay is Metabotropic glutamate receptor 1 (Rattus norvegicus, UniProt P23385).
Chain of Metabotropic glutamate receptor 1 (P23385 whole entry): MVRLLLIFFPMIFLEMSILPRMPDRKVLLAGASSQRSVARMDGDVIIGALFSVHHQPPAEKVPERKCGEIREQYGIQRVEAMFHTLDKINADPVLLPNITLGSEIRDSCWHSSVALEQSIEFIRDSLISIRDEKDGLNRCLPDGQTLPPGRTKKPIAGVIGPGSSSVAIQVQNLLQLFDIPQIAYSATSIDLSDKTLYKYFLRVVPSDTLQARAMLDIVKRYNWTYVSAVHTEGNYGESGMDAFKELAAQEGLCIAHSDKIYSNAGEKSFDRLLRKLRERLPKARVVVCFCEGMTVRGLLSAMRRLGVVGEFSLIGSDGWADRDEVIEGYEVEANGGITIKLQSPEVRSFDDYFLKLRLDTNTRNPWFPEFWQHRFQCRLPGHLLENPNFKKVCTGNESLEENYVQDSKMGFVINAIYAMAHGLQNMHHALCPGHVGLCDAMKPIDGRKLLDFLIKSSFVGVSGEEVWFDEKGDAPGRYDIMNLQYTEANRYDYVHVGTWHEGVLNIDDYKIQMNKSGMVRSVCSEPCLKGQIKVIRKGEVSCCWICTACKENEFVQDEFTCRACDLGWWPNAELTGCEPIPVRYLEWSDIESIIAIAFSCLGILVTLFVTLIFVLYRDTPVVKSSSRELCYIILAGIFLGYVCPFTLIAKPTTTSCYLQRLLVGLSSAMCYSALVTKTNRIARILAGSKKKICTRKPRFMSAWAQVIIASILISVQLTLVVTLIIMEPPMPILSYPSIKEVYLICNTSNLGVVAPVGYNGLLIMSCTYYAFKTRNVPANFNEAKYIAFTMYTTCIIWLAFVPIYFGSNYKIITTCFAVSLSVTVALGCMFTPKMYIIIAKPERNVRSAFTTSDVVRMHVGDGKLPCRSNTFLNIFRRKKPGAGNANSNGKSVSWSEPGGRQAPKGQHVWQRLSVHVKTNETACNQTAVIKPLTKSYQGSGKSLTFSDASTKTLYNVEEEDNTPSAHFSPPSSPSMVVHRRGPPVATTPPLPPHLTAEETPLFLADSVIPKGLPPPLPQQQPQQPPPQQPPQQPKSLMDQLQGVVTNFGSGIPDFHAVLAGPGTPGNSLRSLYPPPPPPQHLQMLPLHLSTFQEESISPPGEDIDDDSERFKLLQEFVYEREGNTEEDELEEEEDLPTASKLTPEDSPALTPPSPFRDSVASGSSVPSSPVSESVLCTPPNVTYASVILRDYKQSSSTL
The term Ki denotes the dissociation constant of the complex between target and ligand, obtained from inhibition or displacement. Compound `O=C(Cc1ccccc1)c1ccc2nc3c(cc2c1)CCCO3` had an inhibitory constant (Ki) of 1000 nM.
With `CCOC(=O)C12CC1C(N=O)c1ccccc1O2` (stereo not drawn) [CAS_5126051] the figure was 1000 nM and 4900 nM.
With `N[C@H](C(=O)O)c1cc(O)cc(O)c1` [amino(3,5-dihydroxyphenyl)acetic acid] the figure was greater than 10000 nM.
